Experimental data from patent US20240092750A1, “AQUEOUS FORMULATIONS OF CYTOTOXIC TAXANES WITH CYCLODEXTRIN” (Northwestern University, priority 2022, published 2024).
“Also recorded” adds a separate entry of the source.

Assays:
Tubulin protein = target: T1, Tubulin protein (Sus scrofa, UniProt P02550+P02554); experiment: In vitro tubulin polymerization assay (turbidity at 350 nm); type: biochemical, porcine; conditions: 20 minutes, 37° C.
T1 construct: Tubulin protein (>99% pure, extracted from porcine brain); from tissue; host or cells: porcine brain
T1 sequence (P02554 whole entry): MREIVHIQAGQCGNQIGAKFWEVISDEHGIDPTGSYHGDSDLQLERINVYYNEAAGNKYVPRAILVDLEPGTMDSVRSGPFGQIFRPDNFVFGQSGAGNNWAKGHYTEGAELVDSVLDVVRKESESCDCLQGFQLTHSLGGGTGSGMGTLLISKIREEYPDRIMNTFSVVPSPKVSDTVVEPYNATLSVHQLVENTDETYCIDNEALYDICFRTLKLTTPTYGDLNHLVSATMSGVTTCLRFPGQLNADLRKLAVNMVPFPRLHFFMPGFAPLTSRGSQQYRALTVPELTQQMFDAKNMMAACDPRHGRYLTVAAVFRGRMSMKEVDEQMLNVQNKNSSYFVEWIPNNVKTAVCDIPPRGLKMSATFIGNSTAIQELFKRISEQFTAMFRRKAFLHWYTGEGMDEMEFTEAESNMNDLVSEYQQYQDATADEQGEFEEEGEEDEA
T1 sequence (P02550 whole entry): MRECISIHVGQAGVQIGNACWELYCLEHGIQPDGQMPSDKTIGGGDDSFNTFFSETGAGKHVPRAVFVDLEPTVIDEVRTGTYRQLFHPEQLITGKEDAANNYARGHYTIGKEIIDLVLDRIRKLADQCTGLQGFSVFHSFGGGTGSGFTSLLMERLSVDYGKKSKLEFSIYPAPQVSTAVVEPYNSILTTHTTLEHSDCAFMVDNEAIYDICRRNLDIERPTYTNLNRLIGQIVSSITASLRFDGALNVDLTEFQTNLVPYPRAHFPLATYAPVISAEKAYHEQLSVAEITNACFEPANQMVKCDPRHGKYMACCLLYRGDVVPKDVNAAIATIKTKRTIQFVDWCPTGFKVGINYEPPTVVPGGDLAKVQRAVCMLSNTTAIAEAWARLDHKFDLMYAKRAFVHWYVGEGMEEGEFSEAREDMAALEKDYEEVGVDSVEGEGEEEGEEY
Protocol: Tubulin protein (>99% pure, extracted from porcine brain) was reconstituted in buffer solution (80 mM PIPES pH 6.9, 2 mM MgCl2, 0.5 mM EGTA, and 10% (v/v) glycerol) to a concentration of 1 mg/mL. 100 μL of this tubulin solution was added per well of a black, 96-well plate, which had been warmed to 37° C. prior to the experiment. This was followed by the addition of either guanosine triphosphate (GTP), Paclitaxel (PTX), or ODDA-PTX-CyD, where the final concentration in each respective well was 1 mM GTP, 10 μM PTX, or 10 μM ODDA-PTX-CyD. Changes in turbidity of the samples were monitored via 96-well plate reader at 350 nm, where a recorded increase in optical density supports the formation of microtubules in solution. Each set of conditions were measured in triplicate and monitored over 20 minutes at 37° C.

[1] = Aqueous solubility tests in milliQ water or dPBS
Protocol: Solubility Tests: To verify ODDA-PTX aqueous solubility, characterization methods in milliQ water or dPBS were performed.

Question: With `Nc1nc2c(ncn2[C@@H]2O[C@H](COP(=O)(O)OP(=O)(O)OP(=O)(O)O)[C@@H](O)[C@H]2O)c(=O)[nH]1` [GTP, guanosine triphosphate] as the compound, how does the “change in optical density (microtubule formation)” value (Tubulin protein; 1 mM GTP) read?
Answer: The value was “did not portray significant increases in optical density”.

Question: For `CC(=O)O[C@H]1C(=O)[C@@]2(C)[C@H]([C@H](OC(=O)c3ccccc3)[C@]3(O)C[C@H](OC(=O)[C@H](OC(=O)CCCCCCCCCCCCCCCCC(=O)O)[C@@H](NC(=O)c4ccccc4)c4ccccc4)C(C)=C1C3(C)C)[C@]1(OC(C)=O)CO[C@@H]1C[C@@H]2O` [ODDA-PTX, 1,18-octadecandioic acid-paclitaxel], which “solubility in water or buffer alone (in words)” value ([1]; water alone / buffer alone) is on record?
Answer: The value was “insolubility; also recorded: not soluble in water alone”.

Question: What about the “aqueous solubility with respect to ODDA-PTX” value ([1]; with respect to ODDA-PTX) of the same compound?
Answer: The value was 21 µg/mL.

Question: With `CC(=O)O[C@H]1C(=O)[C@@]2(C)[C@H]([C@H](OC(=O)c3ccccc3)[C@]3(O)C[C@H](OC(=O)[C@H](O)[C@@H](NC(=O)c4ccccc4)c4ccccc4)C(C)=C1C3(C)C)[C@]1(OC(C)=O)CO[C@@H]1C[C@@H]2O` [paclitaxel] as the compound, how does the “change in optical density (microtubule formation)” value (Tubulin protein; 10 μM) read?
Answer: The value was “resulted in the formation of microtubules”.
